Holding throughout (assay type): cell-based
In test [1] the target is T1, organic cation transporter 1 (OCT1/SLC22A1) (Homo sapiens, UniProt O15245).
T1 sequence (O15245 1-554): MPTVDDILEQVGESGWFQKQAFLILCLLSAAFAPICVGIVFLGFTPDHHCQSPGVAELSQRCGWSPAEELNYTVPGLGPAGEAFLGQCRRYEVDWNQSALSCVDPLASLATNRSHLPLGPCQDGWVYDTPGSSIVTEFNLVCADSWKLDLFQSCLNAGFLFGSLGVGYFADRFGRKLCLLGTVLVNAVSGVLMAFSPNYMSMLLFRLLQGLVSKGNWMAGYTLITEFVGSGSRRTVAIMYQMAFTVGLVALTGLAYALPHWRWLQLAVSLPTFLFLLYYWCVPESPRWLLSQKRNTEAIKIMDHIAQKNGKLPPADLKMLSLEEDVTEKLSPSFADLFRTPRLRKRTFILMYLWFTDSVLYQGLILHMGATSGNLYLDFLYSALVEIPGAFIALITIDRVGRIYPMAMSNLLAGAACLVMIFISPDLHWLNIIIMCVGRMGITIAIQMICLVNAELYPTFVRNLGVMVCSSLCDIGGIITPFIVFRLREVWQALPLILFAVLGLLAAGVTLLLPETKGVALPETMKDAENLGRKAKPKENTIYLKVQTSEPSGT
The test can be described thus: inhibition of OCT1-specific [3H]atenolol uptake at […] in MDCKII cells.

The target of test [2] is T1, organic cation transporter 1 (OCT1/SLC22A1). The test can be described thus: inhibition of OCT1-specific [3H]atenolol uptake in MDCKII cells stably expressing OCT1.
The target is the same in test [3]. The test is described as follows: inhibition of OCT1-specific [3H]atenolol uptake in MDCKII cells stably expressing OCT1; MPP+ uptake also inhibited.

In general, Ki refers to a dissociation constant, usually derived from enzyme kinetics or from competition with a known ligand. A high value points to lower affinity.

As to `O=c1cc(-c2ccccc2)oc2cc(O)c(O)c(O)c12` [Baicalein], the “inhibition of OCT1-specific [3H]atenolol uptake at 100 μM in MDCKII cells” value in test [1] is listed as “exhibited the most potent inhibitory activity”.

As for `O=C(CCc1ccc(O)cc1)c1c(O)cc(O)cc1O` [phloretin], the inhibition constant Ki in test [2] is 38 µM.

In turn, `O=c1c(O)c(-c2ccc(O)c(O)c2)oc2cc(O)cc(O)c12` [quercetin] had a Ki in test [3] of 48 µM.

Take `O=C(CCc1ccc(O)cc1)c1c(O)cc(O)cc1O[C@@H]1O[C@H](CO)[C@@H](O)[C@H](O)[C@H]1O` [Phlorizin]: in test [1], the “inhibition of OCT1-specific [3H]atenolol uptake at 100 μM in MDCKII cells” value is listed as “also exhibited inhibitory activities comparable to those of their aglycones”.

The values above are taken from publication PMC5668658 (Biochemistry and Biophysics Reports, 2015).
